Measurements from patent US20250169495A1, “COMPOSITIONS AND METHODS FOR CONTROLLING DROSOPHILA FLIES” (Rutgers, The State University of New Jersey, priority 2023, published 2025).

Experiments:
[1] = system: Drosophila suzukii adults; test: Multiple choice bioassay #2: known and putative repellents; type: in vivo; settings: 50 μL neat; six traps per arena; 24 h; n=6
Description: Within each arena, six gated traps were positioned randomly in a circle (40 cm diameter) at equal distance with each trap 20 cm apart along the circumference. Each gated trap contained ˜5 g of store-bought organic blueberry fruit (n=5), as described elsewhere herein. One of the six traps served as a control (with blueberry fruit only) and the remaining five traps had one of the repellents added to the blueberry fruit. Each volatile (50 μL, neat) was released from a 1 mL polyethylene vial with a piece of cotton placed inside each trap (control traps had vials with cotton but without the volatile). A vial with a cotton ball soaked with deionized water was placed in the middle of the arena. Roughly 150 D. suzukii adults (1:1 male: female ratio) were released inside each arena and the number and sex of flies inside treatment and control traps was recorded after 24 h. The experiment started at 1:00 p.m., was replicated 6 times, and was done in a laboratory under 22±2° C., 55±5% RH, 16:8 (L:D) h. Data from multiple choice assays on the percent of male and female D. suzukii adults responding to each volatile were compared using ANOVA (Minitab version 17; Minitab Inc., State College, PA, USA). The ANOVA model included treatment, sex, and their interaction as fixed factors and block (replicate) as a random factor. A multi-comparison Tukey test (Minitab) was used to determine differences among treatments. Percent data were arcsine square-root transformed prior to ANOVA. Pairwise choice assays were analyzed using G-tests with William's correction. Non-responders were excluded from the statistical analyses.

[2] = system: Drosophila suzukii adults; test: Multiple choice bioassay #1: anthracnose-induced volatiles, gated traps with blueberries; type: in vivo; settings: 50 μL neat volatile added to blueberry fruit in gated trap; 15 traps per arena; 24 h; n=4
Description: These bioassays were done in arenas that consisted of a dome cage (60 cm width×60 cm length x 60 cm height; BugDorm-2120 Insect tent; shop.bugdorm.com) (FIG. 1A). Within each arena, 15 gated traps were positioned randomly in a circle (40 cm diameter) at equal distance with each trap 8.4 cm apart along the circumference (FIG. 1A). Each gated trap consisted of 50 mL polystyrene tubes (Fisher Scientific, Nazareth, PA, USA) covered with aluminum foil and sealed with Parafilm®, with a 4 mm-diameter hole in the center of the Parafilm to provide an entrance to flies. All traps had equal quantities (ca. 5 g) of store-bought organic blueberry fruit (n=5); fruit were sterilized with bleach prior to the study (10% bleach for 2 min, rinsed three times in distilled water). One of the 15 traps served as a control (with blueberry fruit only) and the remaining 14 traps had one of the anthracnose volatile compounds added to the blueberry fruit. The 14 compounds tested were: 3-hydroxy-2-butanone, styrene, (E)-2-hexen-1-ol, ethyl 3-hydroxy-3-methylbutanoate, 2-methyl-1-butanol, ethyl propanoate, 2-methyl-1-propanol, diethyl carbonate, 2-methylpropanal, 3-methyl-1-butanol, ethyl 2-methylpropanoate, ethyl butanoate, ethyl (E)-but-2-enoate, and 3-methyl-3 buten-1-ol (see Results). Each volatile (50 μL, neat) was released from a 1 mL polyethylene vial (Globe Scientific Inc., Paramus, NJ, USA) with a piece of cotton placed inside each trap (control traps had vials with cotton but without the volatile). A vial with a cotton ball soaked with deionized water was placed in the middle of the arena to provide flies with water during the experiment. Roughly 300 D. suzukii adults (1:1 male: female ratio) were released inside each arena and the number and sex of flies inside treatment and control traps was recorded after 24 h. The experiment started at 1:00 p.m., was replicated 4 times, and was done in a laboratory under 22+2° C., 55+5% RH, 16:8 (L:D) h.
Data from multiple choice assays on the percent of male and female D. suzukii adults responding to each volatile were compared using ANOVA (Minitab version 17; Minitab Inc., State College, PA, USA). The ANOVA model included treatment, sex, and their interaction as fixed factors and block (replicate) as a random factor. A multi-comparison Tukey test (Minitab) was used to determine differences among treatments. Percent data were arcsine square-root transformed prior to ANOVA. Pairwise choice assays were analyzed using G-tests with William's correction. Non-responders were excluded from the statistical analyses.

Row | SMILES | strength of repellency among the five repellents (rank) [1] | number of flies captured relative to the control [2]
1 | CCCCCc1ccco1 [2-pentylfuran, reference compound] | the least repellent | –
2 | CCCC(=O)OCC [ethyl butanoate] | – | reduced the number of flies captured relative to the control
3 | C/C=C/C(=O)OCC [ethyl (E)-but-2-enoate] | the most repellent | reduced the number of flies captured relative to the control
